Values belong to the compound of their own block, whether it stands above or below them. Square brackets hold non-standard residues; d marks the D form. Peptide text beside a SMILES is read from it. * marks the point of attachment. Sta = CC(C)C[C@H](N)[C@@H](O)CC(=O)O; Isovaleryl = CC(C)CC(=O)*
Assays:
[1] = system: Neuro2a cells expressing apoE3; assay: formation of apoE and p-tau immunoreactive intracellular inclusions after Aβ or ER stress inducers; assay type: cell-based, mouse; details: untreated 0%; p<0.001
Experimental: (§1) Cell cultures—Murine neuroblastoma (Neuro-2a) cells were obtained from American Type Culture Collection (Rockville, Md.). Neuro-2a cells were maintained at 37° C. in a humidified 5% CO2 incubator in MEM-containing 10% FBS, supplemented with non-essential amino acids, penicillin, and streptomycin.
(§2) Transient transfection of cells—Neuro-2a, NT2-N, or cultured mouse primary neurons were transiently transfected with various apoE cDNA constructs, as listed in Table I, by using lipofectamine method. Briefly, 2 μg of apoE DNA were pre-incubated with 7 μl of lipofectamine in 200 μl of serum-free MEM containing N2-supplements at room temperature for 30 minutes. After addition of 800 μl of serum-free MEM containing N2-supplements, the mixture was added into the cells that had been washed three times with serum-free MEM. Ten to forty-eight hours later, the transfected cells were used for different experiments.
(§3) Immunocytochemistry—Neuro-2a cells were grown in 2-well chamber slides for 24 hours and were then transiently transfected with different apoE3 or apoE4 DNA constructs, as described above. After washing twice in PBS, the transfected cells were fixed with 3% paraformaldehyde in PBS for 30 minutes at room temperature, washed twice in PBS, and then permeabilized with Triton-X100 for 5 minutes which was followed by three washes in PBS.
(§4) To block nonspecific reactions, all slides were incubated for 1 hour at room temperature with PBS containing 2% BSA and 10% normal serum (Vector) derived from the same species as the source of secondary antibody (sheep or rabbit), followed by a 1-hour incubation with the primary antibody (monospecific rabbit anti-human apoE, 1:500; monoclonal anti-p-tau, 1:100-1:1000, anti-p-NF—H, 1:100-1:500) in PBS containing 2% BSA.
(§5) Slides were then washed three times in PBS containing 2% BSA and incubated for 1 hour at room temperature with the secondary antibody (FITC-coupled anti-rabbit IgG to detect antigen-bond anti-human apoE, Rodamine- or Cy5-coupled anti-mouse IgG to detect antigen-bond anti-p-tau or anti-p-NF—H). After three washes in PBS containing 2% BSA, immunofluorescently labeled slides were mounted in VectaShield (Vector) and viewed with a MRC-1024 laser scanning confocal system (Bio-Rad) mounted on an Optiphot-2 microscope (Nikon, Tokyo, Japan).
(§6) Since Aβ deposition is a major pathological component within the brains of Alzheimer's disease patients, we determined the effect of Aβ treatment on the formation of apoE and p-tau immunoreactive intracellular inclusions in Neuro2a cells expressing apoE.
(§7) Since Aβ treatment of cells can cause ER stress (TN98), other ER stress inducers, including Brefeldin A (BfA) and tunicamycin (TN98), were used to determine whether ER stress can increase the formation of intracellular inclusions in apoE transfected Neuro2a cells. Incubation with either BfA or tunicamycin increased the inclusion-positive cells from 2.7±1.2% to 7.2±2.1% (p<0.001) in apoE4 expressing cells and from 0% to 3.2±1.1% (p<0.001) in apoE3 expressing cells.

[2] = system: Neuro2a cells expressing apoE4; assay: as above; assay type: cell-based, mouse; details: untreated 2.7±1.2%; p<0.001
Experimental: as §1, §2, §3, §4, §5, §6, §7

apoE cleavage enzyme [3] = assay: cleavage of apoE4 in the presence of known protease inhibitors, anti-apoE western blot; assay type: biochemical, mouse
Experimental: To test this hypothesis, purified human apoE3 or apoE4 were incubated with brain lysates of apoE knockout mice at 37° C. for 3 hours and the proteolysis of apoE was analyzed by anti-apoE western blot.
To determine the biochemical properties of the putative apoE cleavage enzyme, we tested the effects of different known inhibitors for four major categories of proteases, i.e., serine proteases, cysteine proteases, aspartate proteases, and metalloproteases.

apoE cleavage enzyme [4] = assay: chromogenic assay with Ala-Ala-Pro-Phe-p-nitroanilide as substrate; assay type: biochemical, mouse; details: 1 mM Ala-Ala-Pro-Phe-p-nitroanilide substrate
Experimental: To monitor the cleavage activity, a chromogenic group (p-nitroanilide) was added to the carboxyl-side of the last amino acid at the C-terminus. If the enzyme cuts the bond between the last amino acid and p-nitroanilide, the released p-nitroanilide will yield a yellow color, which can be monitored by a spectrophotometer at about 390-410 nm.
Importantly, a proline at the P2 position and two hydrophobic amino acids (such as alanine, Ala) at the P3 and P4 positions are critical for determining the efficiency of the cleavage. Taken together, the putative apoE cleavage enzyme is a chymotrypsin-like serine protease, which recognizes the motif of Ala-Ala-Pro-Phe (SEQ ID NO:1), Ala-Ala-Pro-Met (SEQ ID NO:2), Ala-Ala-Pro-Leu (SEQ ID NO:3), or a similar sequence in the substrate peptides or proteins. By using Ala-Ala-Pro-Phe-p-nitroanilide as a substrate, the chromogenic assay can be used as a high-throughput method to screen drugs, agents, or chemical compounds that inhibit apoE cleavage activity. Para-nitroanilide is detected spectrophotometrically at about 390-410 nm.
By using the chromogenic assay, in which 1 mM Ala-Ala-Pro-Phe-p-nitroanilide was used as the substrate, we screened many peptides towards the inhibition of the apoE cleavage enzyme activity.

apoE cleavage enzyme [5] = assay: inhibition of apoE4 cleavage by partially purified apoE cleavage enzyme, anti-apoE western blot; assay type: biochemical, mouse; details: peptide 1 mM, 4 μg apoE4, 3 hours at 37° C.
Excerpt: The peptides Ala-Ala-Pro-Phe (SEQ ID NO:1) and Ala-Ala-Pro-Leu (SEQ ID NO:3) were further tested for the inhibition of apoE cleavage. […] Thus, both Ala-Ala-Pro-Phe (SEQ ID NO:1) and Ala-Ala-Pro-Leu (SEQ ID NO:3) can be used as peptide inhibitors for the apoE cleavage enzyme.

[6] = system: Neuro-2a cells expressing apoE3 or apoE4; assay: generation of carboxyl-terminal truncated apoE in cells incubated with Aβ1-42, immunoprecipitation and anti-apoE western blotting; assay type: cell-based, mouse; details: more so with apoE4
Experimental: Immunoprecipitation and western blotting—Neuro-2a cells were grown to 80% confluence in 6-well plates or 15-cm dishes and were then transiently transfected with different apoE DNA constructs, as described above. Twenty-four to forty-eight hours later, the cells were harvested and lysed in ice-cold lysis buffer for 30 minutes. After spinning to remove nuclei (13,000 rpm for 15 minutes), apoE in supernatant was immunoprecipitated with monospecific rabbit anti-human apoE antibody and protein-A agarose beads. The immunoprecipitates were washed twice with lysis buffer and three times with PBS. The presence of apoE, p-tau, or p-NF—H in the immunoprecipitates was analyzed by western blotting using the corresponding antibodies. Alternatively, the supernatants of cell lysates were immunoprecipited with monoclonal anti-p-tau or anti-p-NF—H antibodies and, then, the presence of apoE was analyzed by anti-apoE western blotting.
Since Aβ1-42 increased formation of intracellular inclusions in Neuro2a cells expressing apoE4, we next determined whether treatment of the transfected cells with Aβ will increase generation of the carboxyl-terminal truncated form of apoE. Neuro-2a cells expressing apoE3 or apoE4 were incubated with Aβ1-42, then, intracellular apoE was immunoprecipitated and detected by anti-apoE western blotting. […]

Neuro-2a cells [7] = assay: formation of intracellular inclusions / NFT-like structures in cells transfected with truncated apoE constructs; assay type: cell-based, mouse; details: constructs with deletion of 28 carboxyl-terminal amino acids
Experimental: as §1, §2
Immunocytochemistry—Neuro-2a cells were grown in 2-well chamber slides for 24 hours and were then transiently transfected with different apoE3 or apoE4 DNA constructs, as described above. […]
For the cells transiently transfected with GFP-apoE DNA constructs, after fixed in 3% paraformaldehyde and washed twice in PBS, the green fluorescence was viewed directly with a MRC-1024 laser scanning confocal system (Bio-Rad) as described above. […]

Neuro-2a cells [8] = assay: incubation of cells with exogenous recombinant apoE4(Δ272-299) complexed with β-VLDL; assay type: cell-based, mouse; details: 30 hours incubation
Experimental: In human brains, apoE is synthesized and secreted primarily by astrocytes, although human neurons are capable of producing apoE. The secreted apoE can be internalized by neurons. To determine whether internalized apoE4(Δ272-299) can induce formation of NFT-like structures in neurons. Neuro-2a cells were incubated with recombinant apoE4(Δ272-299), which had been complexed with the lipid transport vehicle β-VLDL. After 30 hours incubation, neurite outgrowth and the formation of NFT-like structures in the cells were determined. […] These structures were identical to the tangle-like structures formed in Neuro-2a cells expressing GFP-apoE4(Δ272-299) in the cytosol. Therefore internalized apoE4(Δ272-299) can escape the endosomal-lysosomal pathway and interact with cytosolic p-tau and p-NF—H.

[9] = 6 mM peptide, 20 hour incubation

Compound: C[C@H]1CCC/C=C/[C@@H]2C[C@H](O)C[C@H]2[C@H](O)/C=C/C(=O)O1 [BfA, Brefeldin A]
inclusion-positive apoE3 expressing cells after treatment [1]: 3.2±1.1%
inclusion-positive apoE4 expressing cells after treatment [2]: 7.2±2.1%

Compound: CC(C)C[C@H](NC(=O)[C@H]1O[C@@H]1C(=O)O)C(=O)NCCCCN=C(N)N [E-64]
inhibition of the cleavage of apoE4 (apoE cleavage enzyme [3]): did not inhibit

Compound: O=C(O)CN(CCOCCOCCN(CC(=O)O)CC(=O)O)CC(=O)O [EGTA]
inhibition of the cleavage of apoE4 (apoE cleavage enzyme [3]): did not inhibit

Compound: O=S(=O)(F)Cc1ccccc1 [PMSF]
inhibition of the cleavage of apoE4 (apoE cleavage enzyme [3]): totally abolished

Compound: CC(C)CC(=O)N[C@H](C(=O)N[C@H](C(=O)N[C@@H](CC(C)C)[C@@H](O)CC(=O)N[C@@H](C)C(=O)N[C@@H](CC(C)C)[C@@H](O)CC(=O)O)C(C)C)C(C)C [pepstain] (Isovaleryl-VV[Sta]A[Sta]-OH)
inhibition of the cleavage of apoE4 (apoE cleavage enzyme [3]): did not inhibit

inhibition of apoE cleavage enzyme activity (apoE cleavage enzyme [4]; [9]): 56%
Compound: Ala-Ala-Pro-Leu (AAPL; OTHER INFORMATION: synthetic peptide)
inhibition of apoE cleavage (apoE cleavage enzyme [5]): significant inhibition

inhibition of apoE cleavage enzyme activity (apoE cleavage enzyme [4]; [9]): 67%
Compound: Ala-Ala-Pro-Phe (AAPF; OTHER INFORMATION: synthetic peptide)
inhibition of apoE cleavage (apoE cleavage enzyme [5]): significant inhibition

Compound: Aβ1-42: amyloid beta (Aβ) peptide 1-42
inclusion-positive apoE3 expressing cells after treatment [1]: 2.8±0.6%
inclusion-positive apoE4 expressing cells after treatment [2]: 6.7±1.5%
amounts of the carboxyl-terminal truncated forms of both apoE3 and apoE4 [6]: significantly increased

Compound: apoE4 (Δ272-299): apoE4 with deletion of 28 carboxyl-terminal amino acids
transfected cells displaying the intracellular filamentous inclusions (Neuro-2a cells [7]): 78±8%
neurite outgrowth (Neuro-2a cells [8]): did not show neurite outgrowth
formation of NFT-like structures (Neuro-2a cells [8]; anti-apoE immunofluorescent staining): NFT-like structures were formed

inhibition of apoE cleavage enzyme activity (apoE cleavage enzyme [4]; 7 μM apoE4): 89%
Compound: apoE4: human apolipoprotein E isoform apoE4, full-length

Compound: tunicamycin
inclusion-positive apoE3 expressing cells after treatment [1]: 3.2±1.1%
inclusion-positive apoE4 expressing cells after treatment [2]: 7.2±2.1%

From patent US6787519B2, “Methods of treating disorders related to apoE” (The Regents of the University of California, priority 2000, dated 2004)
